According to ChEMBL document CHEMBL3132835, “Biological evaluation and molecular modelling of didanosine derivatives” (Medchemcomm, 2014):

Assays:
[1] = Selectivity index, ratio of CCID50 for human PBMC to IC50 for HIV-1 HTLV-3B; format: functional
[2] = system: Human immunodeficiency virus 1; experiment: Fold resistance, ratio of IC50 for NRTI-resistant HIV-1 D67N, T69D, K70R, A98G, V118I, M184V, T215F and K219Q mutant to wild type HIV-1 isolate infected in human PBMC cells; format: functional
[3] = system: Human immunodeficiency virus 1; experiment: Antiviral activity against HIV-1 HTLV-3B infected in human PBMC cells assessed as inhibition of viral production by p24 antigen production/ELISA; format: functional, organism-based; conditions: Human immunodeficiency virus 1, HTLV-3B
[4] = Cytotoxicity against human PBMC assessed as inhibition of cell growth by trypan blue staining; format: cell-based; conditions: read-out: CCID50
[5] = system: Human immunodeficiency virus 1; experiment: Antiviral activity against wild type HIV-1 isolate infected in human PBMC cells assessed as inhibition of viral production by p24 antigen production/ELISA; format: functional, organism-based; conditions: Human immunodeficiency virus 1, PBMC
[6] = Half life in rat; format: ADME, organism-based; conditions: in vivo

SMILES | Selectivity Index [1] | Ratio IC50 [2] | IC50 [3] [µM] | CC50 [4] [µM] | IC50 [5] [µM] | half-life [6] [h]
CCCCCOC(=O)OC[C@@H]1CC[C@H](n2cnc3c(=O)nc[nH]c32)O1 | 200 | 600 | 30 | 7000 | 6.49 | 
Cc1cn([C@H]2C[C@H](N=[N+]=[N-])[C@@H](CO)O2)c(=O)[nH]c1=O [ZIDOVUDINE] |  | 4000 |  |  | 0.216 | 
CCOC(=O)OC[C@@H]1CC[C@H](n2cnc3c(=O)nc[nH]c32)O1 | 1.2 |  | 490 | 570 |  | 
CCCCOC(=O)OC[C@@H]1CC[C@H](n2cnc3c(=O)nc[nH]c32)O1 | 2.9 |  | 100 | 290 |  | 
CCCCCCOC(=O)OC[C@@H]1CC[C@H](n2cnc3c(=O)nc[nH]c32)O1 | 5.2 |  | 40 | 220 |  | 
O=c1[nH]cnc2c1ncn2[C@H]1CC[C@@H](CO)O1 [DIDANOSINE] | 2.3 | 900 | 40 | 100 | 3.42 | 1
CCCCCCCOC(=O)OC[C@@H]1CC[C@H](n2cnc3c(=O)nc[nH]c32)O1 | 1.7 |  | 300 | 520 |  | 
